In assay [1] the test system is mice with middle cerebral artery occlusion (focal ischemia-reperfusion). In words: Rotorod vestibulomotor function after modified middle cerebral artery occlusion (MCAO). The assay is classed as in vivo, mouse. From the text:
A modified middle cerebral artery occlusion (MCAO) model (Huang et al., (1994) Science, 265:1883-1885; Laskowitz et al., (1997) J. Cereb. Blood Flow Metab., 17:753-758) was used to determine the effect of the mimetic peptides on neurological function after stroke and to evaluate the peptide's efficacy as a therapeutic agent for stroke. The mice were endotracheally intubated after anesthesia induction with 4.6% isoflurane, and the lungs were mechanically ventilated with 1.6% isoflurane in 30% O2/70% N2. Via a midline cervical skin incision, the right common carotid artery was identified. The external carotid artery was ligated and transected. The internal carotid artery was dissected distally until the origin of the pterygopalatine artery was visualized. A 6-0 nylon monofilament with blunted tip lightly coated with silicone was inserted into the proximal external carotid artery stump and advanced 11 mm into the internal carotid artery to occlude the middle cerebral artery. After 90 min, the filament was removed to restore blood perfusion, and the skin incision closed with suture. Isoflurane was discontinued and the mice were extubated upon the recovery of spontaneous respiration. Post-injury mice were placed in an oxygen-enriched environment (FIO2=50%) for 1 hr and then returned to their cages. Rectal temperature was continuously monitored and servoregulated with surface heating/cooling at 37° C. throughout the procedure.
Two groups of 10-12 week old male C57Bl/6J mice, a control group (n=12) and a VR-55-treated group (n=9), received MCAO. […]
An automated Rotorod (Ugo Basile, Comerio, Italy) was used to assess vestibulomotor function, as previously described above. […] The average time to fall from the rotating cylinder in the latter 3 trials was recorded as baseline functional Rotorod latency. […] The average latency to fall from the rod was recorded. […]
(In general: Falling from the rotarod earlier than controls is read as motor impairment.)

The subject of a further assay is mice with blast injury. In words: Morris water maze after blast injury (shock tube blast model). Format: in vivo, mouse. The procedure:
Another experimental procedure for measuring neurological deficits was developed using a Morris water maze. The procedure used a black aluminum pool containing a movable platform (7.5 cm diameter) and filled with 25-27° C. water opacified with powdered milk. Each training or testing session consisted of four trials per day with an interval of 20-30 minutes between trials. One day before testing, mice were trained using a visible platform (platform flagged and located in a different quadrant each trial to minimize quadrant habituation, no extra-maze visual cues) to habituate the mice to handling and swimming and to teach the mice the goal of the test-escaping the water by climbing on the platform. […] Latency to finding the platform and swimming speed were recorded using a computerized video tracking system (Ethovision 2.2.14; available from Noldus Information Technology, Leesburg VA). […]
The shock tube was mounted vertically on an extruded aluminum frame using three vibration-damping U-bolts. […] Peak incident overpressure, positive-phase duration, and peak incident impulse were recorded in the three end-tube PTs for each test (data not shown). […] Atmospheric conditions (temperature, barometric pressure, humidity) were recorded prior to each test. […]

For Ac-VSRRR-NH2 [VR-55, Ac-VSRRR-NH2], the “functional Rotorod latency compared to control mice” value in assay [1] (Day 3 post-injury, 0.05 mg/kg iv at 30 min and 6 hrs after reperfusion) is given as “improvement in functional Rotorod latency”. The “functional Rotorod latency” value in assay [1] (Day 3 post-injury, 0.05 mg/kg iv at 30 min and 6 hrs after reperfusion, control mice 161+/−32 sec) stood at 216 ± 26 s. Moreover, in assay [1] (day before MCAO, control mice 217+/−20 sec), the “baseline functional Rotorod latency” value was found to be 214 ± 22 s. In addition, the “neurocognitive deficit after blast injury (Morris water maze)” value with mice with blast injury (FIG. 8, groups of 15) is “reduces neurocognitive deficit after blast injury”. The “time in the correct quadrant (probe trial)” value in the assay on mice with blast injury (blast injury, vehicle 17.8±1.9 seconds, p=0.24) came out at 21.8 ± 2.7 s.
